# Paper PMC10686834, “Targeting myeloid chemotaxis to reverse prostate cancer therapy resistance” (Nature, 2023)
# Legend:
# CYP2A6 = system: CYP2A6; set-up: method as in AZD5069 Investigator Brochure (IB); settings: at concentrations of up to 100 μmol/L; ref AZD5069 Investigator Brochure (IB); cited from earlier work
# [1] = system: gastric emptying and intestinal motility; settings: rat, ref AZD5069 Investigator Brochure (IB), cited from earlier work
# CYP2C9 = system: CYP2C9; set-up: method as in AZD5069 Investigator Brochure (IB); settings: ref AZD5069 Investigator Brochure (IB); cited from earlier work
# [2] = set-up: method as in AZD5069 Investigator Brochure (IB); settings: in vitro and in vivo studies; ref AZD5069 Investigator Brochure (IB); cited from earlier work
# CYP3A4 [3] = system: CYP3A4; set-up: method as in AZD5069 Investigator Brochure (IB); settings: at concentrations of up to 100 μmol/L; ref AZD5069 Investigator Brochure (IB); cited from earlier work
# CYP1A2 = system: CYP1A2; set-up: method as in AZD5069 Investigator Brochure (IB); settings: at concentrations of up to 100 μmol/L; ref AZD5069 Investigator Brochure (IB); cited from earlier work
# monkey = settings: in vivo; cited from earlier work
# [4] = set-up: method as in AZD5069 Investigator Brochure (IB); settings: ref AZD5069 Investigator Brochure (IB); cited from earlier work
# CYP2B6 = system: CYP2B6; set-up: method as in AZD5069 Investigator Brochure (IB); settings: human hepatocytes; ref AZD5069 Investigator Brochure (IB); cited from earlier work
# healthy volunteers = system: healthy volunteers; set-up: method as in AZD5069 Investigator Brochure (IB); settings: ref AZD5069 Investigator Brochure (IB), cited from earlier work
# rat = settings: 1-month and 6-month rat studies; ref AZD5069 Investigator Brochure (IB); cited from earlier work
# [5] = system: patients with ARSI-resistant mCRPC; experiment: Phase 1 trial of AZD5069 plus enzalutamide: antitumour activity (RECIST v.1.1, PSA, CTC count); assay type: in vivo, human
# From the text: Patients needed to be on treatment for at least 12 weeks to be considered a responder. Thirteen patients had assessable measurable disease by Response Evaluation Criteria in Solid Tumors v.1.1. […] All patients classed as partial responders had radiologic progression-free survival of more than 6 months. […] Three of four patients classed as partial responders, for whom pre-treatment tissue biopsy was available for androgen receptor splice variant 7 (AR-V7) immunohistochemistry (IHC) including the patient who received only abiraterone previously, had tumour expressing AR-V7 protein.
# Radiologic tumour responses were measured by computerized tomography of the thorax, abdomen and pelvis, bone scan, and, where indicated, whole-body magnetic resonance imaging, at baseline, once every 3 cycles, and then at the end of treatment if this was more than 8 weeks since the last scan. PSA and CTC count were measured at baseline, and then on day 1 of every cycle, and at the end of treatment. CTC counts were analysed using previously described methods.
# Secondary endpoints were:(i) the rate of objective response, with objective response defined as confirmed soft tissue objective response by Response Evaluation Criteria in Solid Tumors v.1.1 in those with measurable disease, and/or PSA decline ≥50% confirmed 4 weeks or later, and/or CTC count conversion from ≥5 per 7.5 ml of blood at baseline to <5 per 7.5 ml of blood at nadir; (ii) pharmacokinetic parameters, including maximum concentration, area under the concentration–time curve; and (iii) pharmacodynamic changes including identifying patients whose blood NLR, neutrophil, and intratumour myeloid cell density decrease. Exploratory endpoints included blood cytokine levels and evaluation of tumour molecular profile on response.
# Sample size was chosen pragmatically. According to the rule-based 3 + 3 design, which guided dose-escalation decisions, the cohort size was three patients and skipping of dose levels was not allowed. Patients who completed the DLT period or experienced a DLT during the DLT period were considered part of the evaluable population. Patients who received at least one dose of study drug were considered part of the safety population. To be evaluable for response, the patient must have met the eligibility criteria, received at least three cycles of trial medication, and have had baseline assessment of disease. Comparisons of baseline characteristics between patients classed as responders and those classed as non-responders were carried out using the two-sided Mann–Whitney U-test. Comparisons of paired pharmacokinetic and pharmacodynamic parameters were carried out using the two-sided paired Wilcoxon signed-rank test. Safety variables and pharmacokinetic and pharmacodynamic endpoints were summarized descriptively.
# CYP3A4 [6] = system: CYP3A4; set-up: method as in AZD5069 Investigator Brochure (IB); settings: co-administration with ketoconazole; ref AZD5069 Investigator Brochure (IB); cited from earlier work
# [7] = first partial responder at AZD5069 160 mg BD, at nadir (3–4 months)
# [8] = partial responder at AZD5069 80 mg BD
# [9] = partial responder at AZD5069 120 mg BD
# [10] = second responder at AZD5069 160 mg BD
smiles,measurement,setting,value
C[C@@H](Oc1cc(NS(=O)(=O)N2CCC2)nc(SCc2cccc(F)c2F)n1)[C@@H](O)CO [AZD5069],inhibition of CYP2A6,CYP2A6,not an inhibitor
same,No Observed Effect Level (NOEL),[1]; gastric emptying and intestinal motility,60 mg/kg
same,dose level with inhibition of gastric emptying and intestinal motility,[1],350 mg/kg
same,IC50,CYP2C9,~53.8 µM
same,genotoxicity,[2],not genotoxic
same,inhibition of CYP3A4,CYP3A4 [3],not an inhibitor
same,inhibition of CYP1A2,CYP1A2,not an inhibitor
same,NOAEL,monkey,262.5 mg/kg BD
same,phototoxic potential,[4],low risk for phototoxic potential
same,induction of CYP2B6 activity,CYP2B6,concentration dependent induction
same,adverse effects considered to be related to treatment,healthy volunteers; 202 healthy volunteers,no clinically significant adverse effects
same,doses with a reduction in blood neutrophil counts,healthy volunteers; healthy volunteers,≥ 5.45 mg
same,dose with enlarged mandibular lymph nodes in both sexes,rat,≥ 40 mg/kg BD
same,"objective partial response rate (RECIST v.1.1 ≥30% decrease, PSA decline ≥50% and/or CTC conversion)","[5]; 21 response-evaluable patients, all dose levels, plus enzalutamide",24%
same,CTC count,"[5]; Patient 4 (as per Fig. 4a), C1D1",5 CTC/7.5 ml blood
same,CTC count,"[5]; Patient 4, C1D15",2 CTC/7.5 ml blood
same,CTC count,"[5]; Patient 4, C2D1",1 CTC/7.5 ml blood
same,CTC count,"[5]; Patient 4, C3D1",5 CTC/7.5 ml blood
same,CTC count,"[5]; Patient 4, C4D1",3 CTC/7.5 ml blood
same,CTC count,"[5]; Patient 4, C5D1",5 CTC/7.5 ml blood
same,CTC count,"[5]; Patient 4, C6D1",5 CTC/7.5 ml blood
same,CTC count,"[5]; Patient 4, C7D1",3 CTC/7.5 ml blood
same,CTC count,"[5]; Patient 4, C8D1",12 CTC/7.5 ml blood
same,CTC count,"[5]; Patient 4, C9D1",14 CTC/7.5 ml blood
same,CTC count,"[5]; Patient 4, C10D1",33 CTC/7.5 ml blood
same,CTC count,"[5]; Patient 4, C11D1",34 CTC/7.5 ml blood
same,CTC count,"[5]; Patient 4, C12D1",57 CTC/7.5 ml blood
same,CTC count,"[5]; Patient 4, C13D1",52 CTC/7.5 ml blood
same,CTC count,"[5]; Patient 4, C14D1",53 CTC/7.5 ml blood
same,CTC count,"[5]; Patient 4, C15D1",96 CTC/7.5 ml blood
same,CTC count,"[5]; Patient 4, C16D1",235 CTC/7.5 ml blood
same,CTC count,"[5]; Patient 4, C17D1",86 CTC/7.5 ml blood
same,CTC count,"[5]; Patient 4, C18D1",97 CTC/7.5 ml blood
same,CTC count,"[5]; Patient 4, Treatment Discontinuation",119 CTC/7.5 ml blood
same,CTC count,"[5]; Patient 10 (as per Fig. 4a), C1D1",39 CTC/7.5 ml blood
same,CTC count,"[5]; Patient 10, C1D15",26 CTC/7.5 ml blood
same,CTC count,"[5]; Patient 10, C2D1",19 CTC/7.5 ml blood
same,CTC count,"[5]; Patient 10, C3D1",0 CTC/7.5 ml blood
same,CTC count,"[5]; Patient 10, C4D1",10 CTC/7.5 ml blood
same,CTC count,"[5]; Patient 10, C5D1",46 CTC/7.5 ml blood
same,CTC count,"[5]; Patient 10, C9D1",101 CTC/7.5 ml blood
same,CTC count,"[5]; Patient 10, Treatment Discontinuation",129 CTC/7.5 ml blood
same,radiologic progression-free survival of patients classed as partial responders,[5]; all five partial responders,more than 6 months
same,radiologic progression-free survival,[5]; first partial responder at AZD5069 160 mg BD,8 months
same,PSA fall,[5]; [7],84%
same,decrease in nodal disease,[5]; [7],20%
same,PSA on treatment,"[5]; first partial responder at AZD5069 160 mg BD, at nadir, from 344 ng ml^−1",55 ng/mL
same,duration of CTC conversion,[5]; [8],seven
same,time on trial,[5]; [8],16 months
same,CTC count,"[5]; partial responder at AZD5069 80 mg BD, at cycle 2, baseline 9",1 per 7.5 ml of blood
same,duration of radiologic and clinical responses,[5]; [9],11 months
same,reduction of measurable disease,[5]; [9],31%
same,PSA fall,"[5]; partial responder at AZD5069 120 mg BD, after 5 cycles",89%
same,PSA on treatment,"[5]; partial responder at AZD5069 120 mg BD, after 5 cycles, from 98 ng ml^−1",11 ng/mL
same,time to new bone metastases,[5]; partial responder at AZD5069 320 mg BD,8 months
same,PSA reduction,"[5]; partial responder at AZD5069 320 mg BD, after four cycles",64%
same,PSA on treatment,"[5]; partial responder at AZD5069 320 mg BD, after four cycles, from 129 ng ml^−1",47 ng/mL
same,PSA change,[5]; [10],no PSA decrease
same,radiologic progression-free survival,[5]; [10],8 months
same,"CTC count, peak","[5]; second responder at AZD5069 160 mg BD, during cycle 1, baseline 11",39 per 7.5 ml of blood
same,CTC count,"[5]; second responder at AZD5069 160 mg BD, during cycle 4",0 per 7.5 ml of blood
same,increased exposure (AUC),CYP3A4 [6],2.1 fold
same,increased exposure (Cmax),CYP3A4 [6],1.6 fold
